Key:
ICR (CD-1) mice = test: In vivo toxicity in mice (SC, IN, IP routes); parameters: Aspartate aminotransferase, AST / Alanine transaminase, ALT / Alkaline phosphatase, ALP / Creatinine / Urea / Total bilirubin: unit not given here; settings: for Eosinophil / Erythrocytes, RBC / Granulocytes / Hematocrit, HCT / Hemoglobin Hgb / Lymphocytes / Mean corpuscular haemoglobin concentration, MCHC / Mean corpuscular haemoglobin, MCH / Mean corpuscular volume, MCV / Monocytes / White blood cells, WBC / platelet Counts, PLT / Alanine transaminase, ALT / Alkaline phosphatase, ALP / Aspartate aminotransferase, AST / Creatinine / Total bilirubin / Urea: 3 doses (1hr, 12hr, 24hr), RN7-IN9, RN7-IN6 10 mg/kg, day 7, mean±SD, 4 mice; for Alanine transaminase, ALT / Alkaline phosphatase, ALP / Aspartate aminotransferase, AST / Creatinine / Total bilirubin / Urea: serum
Method: In this study, 4-week old male, pathogen free ICR (CD-1) mice were purchased from InVivos (Lim Chu Kang, Singapore) and used to assess the in vivo toxicity and antibacterial efficacy of the novel peptides, as these animals are by far the most commonly used model for the study of pneumococcal disease ([Chiavolini, Pozzi & Ricci, 2008]). The mice were kept in ventilated polycarbonate cages (12 h light/dark cycle, 20 ± 2 °C and 55% relative humidity). All mice were familiarized for seven days before any experimental procedure and were given unlimited pellets and water ad libitum. All animal experimentations were conducted according to the guidelines approved by Faculty of Medicine Institutional Animal Care and Use Committee (FOM IACUC), University of Malaya (ethics Reference no. : 2013-07-15/MMBTR/SDS).
In order to evaluate the possible toxic effects correlated to peptides administered in mice, four hybrid peptides RN7-IN10, RN7-IN9, RN7-IN8 and RN7-IN6 were chosen for in vivo toxicity assessment, due to their promising in vitro antibacterial activity ([Jindal et al., 2015]). Mice were separated into four groups (each with four mice) and were injected with respective peptides at 1 h, 12 h, and 24 h (three-dose regimen) via IP, SC, and IN administration routes. The hybrid peptides were first administered at high doses (100 mg/kg for IP route, 100 mg/kg for SC routes and 20 mg/kg for IN route). Any abnormal behavior was recorded and survival of mice was noted as well. In case adverse effects such as high physical stress, severe lethargy, physical inactiveness, and/or death were detected, lower graded doses were given. All the administered mice were monitored for seven days or until death occurred. At day seven post administration, all animals were sacrificed and blood and organs were collected. Untreated mice were used as a control group.
Mice used to evaluate the in vivo toxicity and antibacterial activity of the hybrid peptides using the subcutaneous (SC) and intranasal (IN) administration routes, were anesthetized using a combination of a standard dose of xylazine (ilium xylazil-20, 10 mg/kg) and ketamine (Narketan®-10, 100 mg/kg) through intraperitoneal (IP) injection. After seven days of treatment, the in vivo toxicity and antibacterial efficacy experiments were ended and the surviving mice were anesthetized. Blood samples for Hematological and biochemical analysis were collected via cardiac puncture using a 25G syringe (BD bioscience, San Jose, CA, USA). Whole blood for heamatological analysis was collected in 500 µl dipotassium EDTA microtainer tubes (BD Bioscience, USA). About 500 µl of blood collected an eppedorff tube and centrifuged at 8000 rpm for 5 min and then the serum was transferred into a new 1.5 ml tube for biochemistry analysis. The mice were then euthanized by cervical dislocation, dissected and the following organs were collected for histopathology evaluation: lung, kidney, brain, liver and spleen.
For whole blood analysis, the parameters were number of red cells (RBC), number of white cells (WBC), lymphocytes, monocytes, eosinophil, granulocytes, haemoglobin (Hgb), mean corpuscular volume (MCV), hematocrit (HCT), platelet Counts (PLT), Mean corpuscular haemoglobin (MCH) and corpuscular haemoglobin concentration (MCHC). For biochemistry analysis, the parameters were alanine transaminase (ALT), creatinine, alkaline phosphatase (ALP), aspartate aminotransferase (AST), total bilirubin and urea.
The following organs were collected from all the dissected mice: lung, kidney, brain, spleen, and liver. All tissues were fixed in 10% (v/v) buffered formalin and processed for paraffin embedding. Hematoxylin–eosin (HE) was used to stain the histological sections at the histopathology laboratory, Veterinary Laboratory Service Unit, University Putra Malaysia (UPM).

Streptococcus pneumoniae = settings: 30 pneumococcal clinical isolates; earlier study; ref Jindal et al., 2015; cited from earlier work
Description: Table 1 Sequences and physicochemical properties of the template and hybrid AMPs. | column: MIC^a || One of the advantageous alternatives to today’s antibiotics is antimicrobial peptides (AMPs) ([Deslouches et al., 2013]; [Sánchez-Vásquez et al., 2013]). AMPs are synthesized by almost all living beings as the first line of defense in their immune system against microbial infection. Many aspects favor AMPs over traditional antibiotics: a broad range of antimicrobial activity against pathogenic micro-organisms (including viruses, parasites, bacteria, and fungi), microbial pathogens are less efficient in developing resistance against AMPs, as killing take place in a short contact time and AMPs c ...

[1] = IN, head doses: RN7-IN10, RN7-IN8 20 mg/kg
[2] = SC, head doses: RN7-IN10, RN7-IN8 20 mg/kg

FLGGLIKWKWPWWPWRR-NH2 [RN7-IN10, hybrid peptide of ranalexin (residues 1-7) and indolicidin (residues 4-13)]
Eosinophil (ICR (CD-1) mice; [1]): 2.7±0.97%
Erythrocytes, RBC (ICR (CD-1) mice; [1]): 9.62±0.79 10^6/mm^3
Granulocytes (ICR (CD-1) mice; [1]): 66.6±21.64%
Hematocrit, HCT (ICR (CD-1) mice; [1]): 47.95±3.18%
Hemoglobin Hgb (ICR (CD-1) mice; [1]): 15.47 ± 1.07 g/dL
Lymphocytes (ICR (CD-1) mice; [1]): 58.5±7.53%
Mean corpuscular haemoglobin concentration, MCHC (ICR (CD-1) mice; [1]): 28.3 ± 8.15 g/dL
Mean corpuscular haemoglobin, MCH (ICR (CD-1) mice; [1]): 20 ± 7.87 pg
Mean corpuscular volume, MCV (ICR (CD-1) mice; [1]): 50.75±1.7 µm^3
Monocytes (ICR (CD-1) mice; [1]): 2.2±0.37%
White blood cells, WBC (ICR (CD-1) mice; [1]): 5.2±1.44 10^3/mm^3
platelet Counts, PLT (ICR (CD-1) mice; [1]): 619.5±100.42 10^3/mm^3
Eosinophil (ICR (CD-1) mice; IP, RN7-IN10, RN7-IN8 20 mg/kg): 2.23±1.61%
Erythrocytes, RBC (ICR (CD-1) mice; IP, RN7-IN10, RN7-IN8 20 mg/kg): 9.16±0.92 10^6/mm^3
Granulocytes (ICR (CD-1) mice; IP, RN7-IN10, RN7-IN8 20 mg/kg): 46.27±16.41%
Hematocrit, HCT (ICR (CD-1) mice; IP, RN7-IN10, RN7-IN8 20 mg/kg): 47.67±5.6%
Hemoglobin Hgb (ICR (CD-1) mice; IP, RN7-IN10, RN7-IN8 20 mg/kg): 15.85 ± 1.27 g/dL
Lymphocytes (ICR (CD-1) mice; IP, RN7-IN10, RN7-IN8 20 mg/kg): 51.03±16.69%
Mean corpuscular haemoglobin concentration, MCHC (ICR (CD-1) mice; IP, RN7-IN10, RN7-IN8 20 mg/kg): 33.85 ± 0.60 g/dL
Mean corpuscular haemoglobin, MCH (ICR (CD-1) mice; IP, RN7-IN10, RN7-IN8 20 mg/kg): 17.6 ± 0.46 pg
Mean corpuscular volume, MCV (ICR (CD-1) mice; IP, RN7-IN10, RN7-IN8 20 mg/kg): 50.75±2.06 µm^3
Monocytes (ICR (CD-1) mice; IP, RN7-IN10, RN7-IN8 20 mg/kg): 2.8±0.5%
White blood cells, WBC (ICR (CD-1) mice; IP, RN7-IN10, RN7-IN8 20 mg/kg): 4.2±0.55 10^3/mm^3
platelet Counts, PLT (ICR (CD-1) mice; IP, RN7-IN10, RN7-IN8 20 mg/kg): 535±150.11 10^3/mm^3
maximum IP dose at which no signs of stress or abnormal behavior were evident (non-toxic dose) (ICR (CD-1) mice; IP, doses at 1 h, 12 h, 24 h, no death up to seven days): 20 mg/kg
Eosinophil (ICR (CD-1) mice; [2]): 2.82±0.25%
Erythrocytes, RBC (ICR (CD-1) mice; [2]): 8.04±1.18 10^6/mm^3
Hematocrit, HCT (ICR (CD-1) mice; [2]): 41.5±3.7%
Hemoglobin Hgb (ICR (CD-1) mice; [2]): 13.75 ± 1.77 g/dL
Lymphocytes (ICR (CD-1) mice; [2]): 52.2±3.3%
Mean corpuscular haemoglobin concentration, MCHC (ICR (CD-1) mice; [2]): 34.45 ± 1.35 g/dL
Mean corpuscular haemoglobin, MCH (ICR (CD-1) mice; [2]): 17.08 ± 0.4 pg
Mean corpuscular volume, MCV (ICR (CD-1) mice; [2]): 50±2.16 µm^3
Monocytes (ICR (CD-1) mice; [2]): 2.2±0.28%
White blood cells, WBC (ICR (CD-1) mice; [2]): 3.8±0.2 10^3/mm^3
platelet Counts, PLT (ICR (CD-1) mice; [2]): 568.75±81.73 10^3/mm^3
Alanine transaminase, ALT (ICR (CD-1) mice; [1]): 66.9±17.02
Alkaline phosphatase, ALP (ICR (CD-1) mice; [1]): 133.3±10.1
Aspartate aminotransferase, AST (ICR (CD-1) mice; [1]): 172±8.78
Creatinine (ICR (CD-1) mice; [1]): 40.94±0.83
Total bilirubin (ICR (CD-1) mice; [1]): 2.15±0.14
Urea (ICR (CD-1) mice; [1]): 9.3±1.68
Alanine transaminase, ALT (ICR (CD-1) mice; IP, RN7-IN10, RN7-IN8 20 mg/kg): 52.76±12.22
Alkaline phosphatase, ALP (ICR (CD-1) mice; IP, RN7-IN10, RN7-IN8 20 mg/kg): 124.33±10.6
Aspartate aminotransferase, AST (ICR (CD-1) mice; IP, RN7-IN10, RN7-IN8 20 mg/kg): 181.66±38.27
Creatinine (ICR (CD-1) mice; IP, RN7-IN10, RN7-IN8 20 mg/kg): 38.1±6.97
Total bilirubin (ICR (CD-1) mice; IP, RN7-IN10, RN7-IN8 20 mg/kg): 1.82±0.03
Urea (ICR (CD-1) mice; IP, RN7-IN10, RN7-IN8 20 mg/kg): 9.6±2.11
Alanine transaminase, ALT (ICR (CD-1) mice; [2]): 51.25±11.9
Aspartate aminotransferase, AST (ICR (CD-1) mice; [2]): 175±25.41
Creatinine (ICR (CD-1) mice; [2]): 37.8±3.43
Total bilirubin (ICR (CD-1) mice; [2]): 2.1±0.35
Urea (ICR (CD-1) mice; [2]): 9.2±0.8
MIC, minimum inhibitory concentration (Streptococcus pneumoniae): 7.81 to 15.62 µg/mL

— PMC5632533, “Mechanisms of action and in vivo antibacterial efficacy assessment of five novel hybrid peptides derived from Indolicidin and Ranalexin against Streptococcus pneumoniae” (PeerJ, 2017)
